# Assay results published in the PolyMetriX glass transition set.
# ± gives the standard deviation of the reports.
row,SMILES,glass transition temperature
1,*Oc1ccc(NC(=O)c2ccc(Oc3ccc(C(=O)Nc4ccc(Oc5ccc(C6(c7ccc(*)cc7)C7CC8CC(C7)CC6C8)cc5)cc4)cc3)cc2)cc1 (repeat unit),230.00 °C
2,*Nc1ccc(NC(=O)c2ccc(NC(=O)CCCCCCCCC(=O)Nc3ccc(C(*)=O)cc3)cc2)cc1C(=O)OCCCCCCCCCCCCCCCCCC (repeat unit),280.00 °C
3,*COc1ccc(C(c2ccc(OCC3(*)COC3)cc2)(C(F)(F)F)C(F)(F)F)cc1 (repeat unit),134.00 °C
4,*CCCCCCCC(=O)OCCOC(=O)CCCCCCCC1OCC2(COC(*)OC2)CO1 (repeat unit),0.00 °C
5,*CC(O)CN(C)S(=O)(=O)c1cccc(S(=O)(=O)N(C)CC(O)COc2ccc(S(=O)(=O)c3ccc(O*)cc3)cc2)c1 (repeat unit),100.00 °C
6,*CCOC(=O)c1cc(C(=O)O*)cc(C(C)(C)C)c1 (repeat unit),94.00 °C
7,*c1cc(/N=N/c2ccc(C#N)cc2)cc(*)c1O (repeat unit),176.00 °C
8,*CCN(*)C(=O)CCCCC (repeat unit),7.00 °C
9,*Oc1ccc(S(=O)(=O)c2ccc(Oc3ccc(P(C)(=O)c4ccc(*)cc4)cc3)cc2)cc1 (repeat unit),233.00 °C
10,*CC(=O)Nc1ccc(Oc2ccc(Oc3ccc(NC(=O)CN4C(=O)c5ccc(C(c6ccc7c(c6)C(=O)N(*)C7=O)(C(F)(F)F)C(F)(F)F)cc5C4=O)cc3)cc2)cc1 (repeat unit),242.00 °C
11,*O[Si](C)(C)COC(=O)CCCCCCCCC(=O)Oc1ccc(S(=O)(=O)c2ccc(Oc3ccc(/C=C4\CCCC/C(=C\c5ccc(Oc6ccc(S(=O)(=O)c7ccc(OC(=O)CCCCCCCCC(=O)OC[Si](*)(C)C)cc7)cc6)cc5)C4=O)cc3)cc2)cc1 (repeat unit),81.00 °C
12,*CC(*)C(=O)OCCOc1ccc(C(C)(C)c2ccc(OCCO)cc2)cc1 (repeat unit),22.00 °C
13,*OP(=O)(Oc1ccc(C)cc1)Oc1c(C)cc(S(=O)(=O)c2cc(C)c(*)c(C)c2)cc1C (repeat unit),128.00 °C
14,*CCOC(=O)/C=C/C(=O)NCCCCCCNC(=O)/C=C/C(=O)O* (repeat unit),89.00 °C
15,*CC(*)(C)C(=O)Oc1ccc(C(=O)/C=C/c2ccc(OCc3ccccc3)cc2)cc1 (repeat unit),152.00 °C
16,*CCCCCCCCOc1ccc(/C=C2\CC/C(=C\c3ccc(OCCCCCCCCOP(=O)(O*)OC)c(OC)c3)C2=O)cc1OC (repeat unit),73.00 °C
17,*C(=S)Nc1ccc(Oc2ccc(NC(=S)N3C(=O)c4ccc(C(c5ccc6c(c5)C(=O)N(*)C6=O)(C(F)(F)F)C(F)(F)F)cc4C3=O)cc2)cc1 (repeat unit),260.00 °C
18,*CCOP(=O)(/N=N/c1ccc(-c2ccc(/N=N/P(=O)(O*)OCC)cc2)cc1)OCC (repeat unit),43.00 °C
19,*CC(*)(C)C(=O)OCCCl (repeat unit) [Poly(2-chloroethyl methacrylate) ],90 ± 16 °C
20,*C(=O)Nc1cccc(NC(=O)c2ccc3c(c2)C(=O)N(c2cccc(N4C(=O)c5ccc(*)cc5C4=O)c2)C3=O)n1 (repeat unit),339.00 °C
21,*Oc1ccc(NC(=O)NC2CC(C)(C)CC(C)(CNC(=O)Nc3ccc(*)c(-c4ccc(Oc5ccccc5)cc4)c3)C2)cc1-c1ccc(Oc2ccccc2)cc1 (repeat unit),281.00 °C
22,*CC1CCC(CNC(=O)CCCCCCCCCCC(=O)N*)CC1 (repeat unit),85.00 °C
23,*CCCCC(=O)Oc1ccc(OC(=O)c2ccc3c(c2)C(=O)N(*)C3=O)cc1 (repeat unit),89.31 °C
24,*CC(*)(CC(=O)OCCC)C(=O)OCCC (repeat unit),46.50 °C

row,SMILES,glass transition temperature
1,*OP(=O)(Oc1ccc(-c2ccc(*)cc2)cc1)OC1CCCCC1 (repeat unit),116.00 °C
2,*CC(*)(C)C(=O)Oc1cc(C)cc(C)c1 (repeat unit),106.00 °C
3,*CCOCCOC(=O)C1CCC(C(=O)O*)CC1 (repeat unit),-12.00 °C
4,*C(=O)c1ccc2c(c1)/C(=N\c1ccc(Oc3cccc(/N=C4/OC(=O)c5ccc(*)cc54)c3)cc1)OC2=O (repeat unit),253.00 °C
5,*Nc1cc(NC(=O)Nc2ccc(Cc3ccc(NC(*)=O)cc3)cc2)cc(C(=O)Nc2ccc3c(c2)C(=O)c2ccccc2C3=O)c1 (repeat unit),168.00 °C
6,*Oc1c(C)cc(-c2cc(C)c(Oc3ccc(C(=O)c4ccccc4-c4ccccc4C(=O)c4ccc(*)cc4)cc3)c(C)c2)cc1C (repeat unit),233.00 °C
7,*CC(*)(C)C(=O)OCCn1c2ccccc2c2ccccc21 (repeat unit),148.00 °C
8,*OP(=O)(Oc1ccccc1)Oc1ccc(S(=O)(=O)c2ccc(*)cc2)cc1 (repeat unit),100.50 °C
9,*CC(*)c1ccc(C(=O)OCC)cc1 (repeat unit),94.00 °C
10,*CC(*)C(=O)OCCc1ccccc1 (repeat unit),-3.00 °C
11,*CCN(*)C(=O)CCCCCCC (repeat unit),10.00 °C
12,*Nc1ccc(*)cc1C (repeat unit),-71.40 °C
13,*CCCCCCOC(=O)OCCCCCCCCCOC(=O)OCCCCCCOc1ccc(Oc2ccc(O*)cc2)cc1 (repeat unit),-20.00 °C
14,*Oc1ccc(Oc2ccc(C(=O)c3ccc(*)cc3)cc2)cc1 (repeat unit),146 ± 1.3 °C
15,*Oc1ccc(CC(NC(=O)Cc2ccc(OC(=O)CCC(*)=O)cc2)C(=O)OCCCCCC)cc1 (repeat unit),59.00 °C
16,*c1ccc(OCCCCCOc2ccc(N3C(=O)c4ccc(-c5cccc6c5C(=O)N(*)C6=O)cc4C3=O)cc2)cc1 (repeat unit),208.00 °C
17,*Oc1ccc(Oc2ccc(P(C)(=O)c3ccc(*)cc3)cc2)cc1 (repeat unit),213.00 °C
18,*CC1CC2CC1C1CCC(CN3C(=O)c4ccc(C(c5ccc6c(c5)C(=O)N(*)C6=O)(C(F)(F)F)C(F)(F)F)cc4C3=O)C21 (repeat unit),207.00 °C
19,*Nc1ccc(C2(c3ccc(NC(=O)c4ccc(-c5ccc(C(*)=O)c(C)c5)cc4C)cc3)c3ccccc3-c3ccccc32)cc1 (repeat unit),293.00 °C
20,*Oc1ccc(CC(NC(=O)Cc2ccc(OC(=O)CCCC(*)=O)cc2)C(=O)OCCCCCC)cc1 (repeat unit),42.00 °C
21,*c1ccc(Oc2ccc(-n3nc(-c4ccccc4)cc3-c3ccc(-c4cc(-c5ccccc5)nn4*)cc3)cc2)cc1 (repeat unit),260.00 °C
22,*Oc1ccccc1C(=O)OC(=O)c1ccccc1OC(=O)c1ccc(C(*)=O)cc1 (repeat unit),120.00 °C
23,*c1ccc(Oc2ccc(C3(c4ccc(Oc5ccc(N6C(=O)c7ccc(Oc8ccc(C9(c%10ccc(Oc%11ccc%12c(c%11)C(=O)N(*)C%12=O)cc%10)CCC(c%10ccccc%10)CC9)cc8)cc7C6=O)cc5)cc4)CCC(C(C)(C)C)CC3)cc2)cc1 (repeat unit),243.00 °C
24,*CCCCCCOC(=O)CCC(=O)O* (repeat unit),-50.00 °C
